How the values were obtained:
HLA-B*1501 = target: T1, HLA-B*1501 (Homo sapiens, UniProt P01889, A329T/A93T/A95T/C349S/D201E/D98Y/E187L/E204Q/E69M/E70A/K202T/N87E/Q94N/R155S/R180W/S121R/S35A/S48A/V306I/V36M/Y140S/Y91S); assay: Surface plasmon resonance (SPR) binding to soluble HLA-B*1501; settings: for binding to other HLA-B molecules (SPR): HLA-B*1501: at therapeutic concentrations
T1 construct: Complexes containing soluble HLA-B*1501 or 1503 and β2-microglobulin were prepared following the same procedure described above; made in house

HLA-B*1503 = HLA-B*1503 (Homo sapiens, UniProt P01889, A329T/A93T/A95T/C349S/D201E/D98Y/E187L/E204Q/K202T/N87E/Q94N/R155S/R180L/S121R/S35A/V306I/V36M/Y140S/Y91S); assay: Surface plasmon resonance (SPR) binding to soluble HLA-B*1503; settings: for binding to other HLA-B molecules (SPR): HLA-B*1503: at therapeutic concentrations
HLA-B*5101 = HLA-B*5101 (Homo sapiens, UniProt P01889, A329T/A93T/A95T/C349S/D138N/D201E/D98Y/E187L/E204Q/E69T/G107R/I218V/K202T/L105A/L119W/N104I/Q94N/R106L/R155S/R180L/S101N/S121T/S35A/S48A/V306I/V36M/Y195H/Y91F); assay: Surface plasmon resonance (SPR) binding to soluble HLA-B*5101; settings: for binding to other HLA-B molecules (SPR): HLA-B*5101: at therapeutic concentrations
HLA-B*4001 = HLA-B*4001 (Homo sapiens, UniProt P01889, A65T/A93T/A95T/D138N/D98Y/E176V/E69K/N87E/Q56L/Q94N/R180L/S121R/S35A/S48T/T167S/V36M/W171L/Y33H/Y91S); assay: Surface plasmon resonance (SPR) binding to soluble HLA-B*4001; settings: for binding to other HLA-B molecules (SPR): HLA-B*4001: at therapeutic concentrations
[1] = test system: CBZ-specific CD8+ T cells; assay: [3H] thymidine incorporation assay, T cell proliferation with fixed and non-fixed B-LCLs; assay type: cell-based, human; settings: fixed and unfixed autologous B-LCL; FIG. 4
Protocol: (§1) PBMC were isolated by the density-gradient Ficoll-Paque method according to the manufacturer's instructions (GE Healthcare Company, Piscataway, N.J., USA). […] After 3˜4 times of restimulation, CD8^+ T cells were sorted out for further functional assays. T cells were cultured with RPMI-HS medium consisted of RPMI 1640 supplemented with 10% heat-inactivated human type AB serum (Labquid Inc, Ontario, Calif.) and 50 U/ml IL-2 (R&D Systems, Minneapolis, Minn., USA). EBV-transformed B-cell lines (B-LCL) were generated by transforming the donor's PBMCs with supernatant from the EBV-producing cell lines B9-85.
Irradiated APCs (10^3) and T cells (10^4) were incubated with a test compound for 48 hours, and the proliferation of T cells was measured by incorporation of [^3H] thymidine. For fixation assay, autologous B-LCLs were pretreated with 0.05% paraformaldehyde for 30 s. For pulsing experiments, drugs were preincubated with B-LCLs overnight. B-LCLs were washed repeatedly to remove noncovalently bound drug, and then incubated with T cells.

autologous B-LCL cells = assay: 51Cr-release cytotoxicity assay, CBZ-specific CD8+ T cells against drug-pulsed autologous B-LCL; assay type: cell-based, human; settings: B-LCL pulsed with 25 μg/ml drug overnight at 37° C. and washed out before the cytotoxicity assay; FIG. 3
Protocol: as §1
Irradiated APCs (10^3) and T cells (10^4) were incubated with a test compound for 48 hours, and the proliferation of T cells was measured by incorporation of [^3H] thymidine. For fixation assay, autologous B-LCLs were pretreated with 0.05% paraformaldehyde for 30 s. For pulsing experiments, drugs were preincubated with B-LCLs overnight. […]
B-LCLs, preincubated with IFN-γ (R&D Systems, Minneapolis, Minn., USA) overnight, were first incubated with ^51Cr (Perkin Elmer, Waltham, Mass., USA) for 1 hr at 37° C. […] Radioactivity in the supernatant from each wells was measured by a Topcount (Packard Biosciences, Meriden, Conn., USA). The percentage of specific lysis was calculated as follows: (^51Cr release in the test well−spontaneous ^51Cr release)/(maximum ^51Cr release−spontaneous ^51Cr release).

[2] = test system: peptides bound to the soluble HLA-B*1502-β2-microglobulin complex; assay: Analysis of HLA-B-bound drug-modified peptides by liquid chromatography-tandem mass spectrometry (C1R-HLA-B*1502 clone treated with CBZ); design: species or system human; settings: C1R-HLA-B*1502 culture, 50 μg/mL for 48 hours; LC-tandem MS of <3-kDa fraction

Structure (SMILES) | binding to other HLA-B molecules (SPR): HLA-B*1501 (HLA-B*1501) | binding to other HLA-B molecules (SPR): HLA-B*1503 (HLA-B*1503) | binding to other HLA-B molecules (SPR): HLA-B*5101 (HLA-B*5101) | binding to other HLA-B molecules (SPR): HLA-B*4001 (HLA-B*4001) | presentation by B-LCL and activation (proliferation) of CBZ-specific CD8+ T cells [1] | binding to HLA-B*1501 (SPR) (HLA-B*1501; FIG. 6) | binding to HLA-B*1503 (SPR) (HLA-B*1503; FIG. 6) | binding to HLA-B*5101 (SPR) (HLA-B*5101; FIG. 6) | binding to HLA-B*4001 (SPR) (HLA-B*4001; FIG. 6) | response (specific lysis) of CBZ-specific CD8+ T cells to pulsed autologous B-LCL (autologous B-LCL cells) | covalent binding of drug to HLA-B*1502-bound peptides [2]
CC1(C)O[C@@H]2[C@@H](CO[C@@]3(COS(N)(=O)=O)OC(C)(C)O[C@@H]23)O1 [TOP, topiramate] | did not bind | did not bind | did not bind | did not bind |  |  |  |  |  |  | 
NCC1(CC(=O)O)CCCCC1 [GAB, gabapentin] | did not bind | did not bind | did not bind | did not bind | negative results |  |  |  |  |  | 
CC[C@@H](C(N)=O)N1CCCC1=O [LEV, levetiracetam] | did not bind | did not bind | did not bind | did not bind |  |  |  |  |  |  | 
NC(=O)N1c2ccccc2C=Cc2ccccc21 [CBZ, carbamazepine] |  |  |  |  | able to be presented by both fixed and unfixed autologous B-LCL and activated | neither CBZ nor its seven analogs (see the Compounds section above) binds | neither CBZ nor its seven analogs (see the Compounds section above) binds | did not bind | did not bind | none of the CBZ-specific CD8^+ T cells responded | does not covalently bind to peptides
